# According to PMC6384758, “Profiling and Pharmacokinetic Studies of Alkaloids in Rats After Oral Administration of Zanthoxylum nitidum Decoction by UPLC-Q-TOF-MS/MS and HPLC-MS/MS” (Molecules, 2019):
# Where two headings read alike, the source gives them in different places.
# Tests used:
# [1] = Pharmacokinetic study in rats after oral administration of Z. nitidum decoction (HPLC-MS/MS); format: in vivo, Sprague–Dawley rats; settings: for AUC(0-t) / AUC(0-inf) / Cmax / half-life / Tmax: Sprague-Dawley
# Protocol: The HPLC analysis performed on a Surveyor plus HPLC system (Thermo Fisher Scientific, Waltham, MA, USA). The separation was executed by a Thermo Accucore aq C18 column (100 × 2.1 mm, 2.6 μm) (Thermo Fisher Scientific, Waltham, MA, USA) maintained at 30 °C. The mobile phase consisted of Solvent A (0.1% formic acid solution) and Solvent B (0.1% formic acid acetonitrile). The flow rate was 0.3 mL/min. The gradient program was as follows: 5–10% B at 0–5 min; 10–100% B at 5–15 min; 100–5% B at 15–15.1 min; 5% B at 15–20 min.
# MS data were achieved on a triple-quadrupole mass spectrometer: TSQ Quantum Access (Thermo Fisher Scientific, Waltham, MA, USA) with electrospray ionization (ESI) source in positive mode. The instrument parameters were as follows: spray voltage at 3000 V, sheath gas and auxiliary gas with a flow of 30 and 5 arbitrary units, capillary temperature at 350 °C, collision gas pressure at 1.0 mTorr, skimmer offset at 2 V. The selected reaction monitoring (SRM) transitions used for MS analysis were as follows: m/z 342→297 for magnoflorine, 370→188 for α-allocryptopine, 260→227 for skimmianine, 356→192 for IS; the collision energies at 15 eV for magnoflorine, 30 eV for α-allocryptopine, skimmianine and IS. The data acquisition and processing was performed with Xcalibur 2.0 software (Thermo Fisher Scientific, Waltham, MA, USA).
# 100 μL plasma sample, 10 μL IS solution (200 ng/mL) and 300 μL acetonitrile were added to a 1.5 mL eppendorf tube and vortex-mixed for 5 min, then centrifuged at 13,000 (15,493× g) rpm for 10 min. The supernatant was transferred into another eppendorf tube and evaporated to dryness at 35 °C in vacuum using SpeedVac Concentration ((RVC 2-18, Christ). The residue was reconstituted in 100 μL acetonitrile and water (50:50, v/v) and centrifuged at 13,000 rpm (15,493× g) for 15 min.
# For pharmacokinetic study, six rats were orally administered Z. nitidum decoction at a dose of 5.4 mL kg^−1 (5.4 mL decoction equal to 10.8 g crude drug) body weight. The blood samples were collected from orbital vein before dose and 0.17, 0.33, 0.67, 1, 2, 3, 4, 6, 8, 10, 12, and 24 after dose. The blood samples were then centrifuged at 3500 rpm (1274× g) for 15 min at 4 °C. The samples were stored at −80 °C. Data analysis was performed by Drug and Statistics (DAS) 2.0 software (Mathematical Pharmacology Professional Committee of China, Shanghai, China).
# [2] = Stability of analytes in rat plasma under storage conditions; format: in vitro ADME
# Protocol: The selectivity was assessed by analyzing the chromatograms of blank plasma of six different rats, a blank plasma with magnoflorine, α-allocryptopine, skimmianine and IS, and a plasma after dose. The linearity was determined by plotting the peak areas ratios (y) of each analyte to IS against the concentrations, and evaluated by least-squares linear regression. The lower limit of quantification (LLOQ) was defined as the lowest concentration point of the calibration curve (S/N > 10) with the accuracy within ±20% and precision lower than 20%. The accuracy and precision were evaluated by analyzing the six replicate QC samples on the same day (intra-day) and three consecutive days. The accuracy and precision were expressed as relative error (RE%) and relative standard deviation (RSD%), respectively. The extraction recovery was determined by comparing peak areas of the extracted QC samples with those of post-extracted spiked samples. The matrix effects was measured by calculated the analytes peak area ratios of post-extracted spiked samples to those of pure work solution. The stability was investigated by analyzing samples stability under diverse storage conditions: three freeze-thaw cycles, 8 h at 25 °C, −80 °C for 40 days and in autosampler for 24 h.
# [3] = rats, oral Z. nitidum decoction
structure (smiles),measurement,setting,value
"COc1ccc2c(c1O)-c1c(O)c(OC)cc3c1[C@H](C2)[N+](C)(C)CC3 [Magnoflorine, magnoflorine]",AUC(0-t),"[1]; rat plasma, oral Z. nitidum decoction 5.4 mL kg−1, Mean ± SD, n = 6, read-out: AUC0-t",408 ± 91.3 ng·h/mL
same,AUC(0-inf),"[1]; rat plasma, oral Z. nitidum decoction 5.4 mL kg−1, Mean ± SD, n = 6, read-out: AUC0-∞",438 ± 106 ng·h/mL
same,Cmax,"[1]; rat plasma, oral Z. nitidum decoction 5.4 mL kg−1, Mean ± SD, n = 6, read-out: Cmax",113 ± 18.8 ng/mL
same,half-life,"[1]; rat plasma, oral Z. nitidum decoction 5.4 mL kg−1, Mean ± SD, n = 6, read-out: T1/2 (converted)",194 ± 78.6 min
same,Tmax,"[1]; rat plasma, oral Z. nitidum decoction 5.4 mL kg−1, Mean ± SD, n = 6, read-out: Tmax",63 ± 42.6 min
same,Cmax compared with that of skimmianine,[1]; [3],about ten times higher
same,total exposure AUC0–∞ compared among the three components (in words),[1]; [3],the largest
same,"Stability, RE (%)","[2]; rat, 5 ng/mL",−10.00%
same,"Stability, RE (%)","[2]; rat, 50 ng/mL",11.03%
same,"Stability, RE (%)","[2]; rat, 160 ng/mL",9.16%
same,"Stability, RE (%)","[2]; rat, 8 h, 5 ng/mL",−5.14%
same,"Stability, RE (%)","[2]; rat, 8 h, 50 ng/mL",6.87%
same,"Stability, RE (%)","[2]; rat, 8 h, 160 ng/mL",5.74%
same,"Stability, RE (%)","[2]; rat, 24 h, 5 ng/mL",−5.59%
same,"Stability, RE (%)","[2]; rat, 24 h, 50 ng/mL",9.24%
same,"Stability, RE (%)","[2]; rat, 24 h, 160 ng/mL",4.61%
same,"Stability, RE (%)","[2]; rat, 40 days, 5 ng/mL",10.17%
same,"Stability, RE (%)","[2]; rat, 40 days, 50 ng/mL",−8.92%
same,"Stability, RE (%)","[2]; rat, 40 days, 160 ng/mL",5.74%
"COc1ccc2c(OC)c3ccoc3nc2c1OC [Skimmianine, skimmianine]",AUC(0-inf),"[1]; rat, in vivo, po",17.1 ± 6.32 ng·h/mL
same,AUC(0-t),"[1]; rat, in vivo, po",11.1 ± 2.02 ng·h/mL
same,Cmax,"[1]; rat, in vivo, po",8.91 ± 1.89 ng/mL
same,Tmax,"[1]; rat, in vivo, po",22.8 ± 7.2 min
same,half-life,"[1]; rat, in vivo, po",359 ± 97.2 min
same,"Stability, RE (%)","[2]; rat, 1 ng/mL",10.43%
same,"Stability, RE (%)","[2]; rat, 10 ng/mL",−5.95%
same,"Stability, RE (%)","[2]; rat, 32 ng/mL",−9.01%
same,"Stability, RE (%)","[2]; rat, 8 h, 1 ng/mL",−9.41%
same,"Stability, RE (%)","[2]; rat, 8 h, 10 ng/mL",6.62%
same,"Stability, RE (%)","[2]; rat, 8 h, 32 ng/mL",9.51%
same,"Stability, RE (%)","[2]; rat, 24 h, 1 ng/mL",9.47%
same,"Stability, RE (%)","[2]; rat, 24 h, 10 ng/mL",−4.39%
same,"Stability, RE (%)","[2]; rat, 24 h, 32 ng/mL",−1.09%
same,"Stability, RE (%)","[2]; rat, 40 days, 1 ng/mL",9.69%
same,"Stability, RE (%)","[2]; rat, 40 days, 10 ng/mL",−6.48%
same,"Stability, RE (%)","[2]; rat, 40 days, 32 ng/mL",−4.07%
COc1ccc2c(c[n+](C)c3c4cc5c(cc4ccc23)OCO5)c1OC [chelerythrine],absorption (in words),"[1]; preliminary experiment, rats, oral Z. nitidum decoction",poor absorption
COc1cc2c[n+](C)c3c4cc5c(cc4ccc3c2cc1OC)OCO5 [nitidine],absorption (in words),"[1]; rat, in vivo, po",poor absorption
COc1ccc2c(c1OC)CN(C)CCc1cc3c(cc1C(=O)C2)OCO3 [α-allocryptopine],AUC(0-t),"[1]; in vivo, rat plasma, oral Z. nitidum decoction 5.4 mL kg−1, Mean ± SD, n = 6, read-out: AUC0-t",180 ± 96.3 ng·h/mL
same,AUC(0-inf),"[1]; in vivo, rat plasma, oral Z. nitidum decoction 5.4 mL kg−1, Mean ± SD, n = 6, read-out: AUC0-∞",186 ± 98.7 ng·h/mL
same,Cmax,"[1]; in vivo, rat plasma, oral Z. nitidum decoction 5.4 mL kg−1, Mean ± SD, n = 6, read-out: Cmax",100 ± 49.9 ng/mL
same,half-life,"[1]; in vivo, rat plasma, oral Z. nitidum decoction 5.4 mL kg−1, Mean ± SD, n = 6, read-out: T1/2 (converted)",46.8 ± 10.2 min
same,Tmax,"[1]; in vivo, rat plasma, oral Z. nitidum decoction 5.4 mL kg−1, Mean ± SD, n = 6, read-out: Tmax",28.2 ± 7.8 min
same,Cmax compared with that of skimmianine,[1]; [3],about ten times higher
same,"Stability, RE (%)","[2]; rat plasma, 8 h at room temperature, 5 ng/mL, n = 6",12.53%
same,"Stability, RE (%)","[2]; rat plasma, 8 h at room temperature, 50 ng/mL, n = 6",−7.13%
same,"Stability, RE (%)","[2]; rat plasma, 8 h at room temperature, 160 ng/mL, n = 6",3.27%
same,"Stability, RE (%)","[2]; rat plasma, 24 h at 4 °C, 5 ng/mL, n = 6",2.99%
same,"Stability, RE (%)","[2]; rat plasma, 24 h at 4 °C, 50 ng/mL, n = 6",−6.21%
same,"Stability, RE (%)","[2]; rat plasma, 24 h at 4 °C, 160 ng/mL, n = 6",7.75%
same,"Stability, RE (%)","[2]; rat plasma, 40 days at −80 °C, 5 ng/mL, n = 6",8.59%
same,"Stability, RE (%)","[2]; rat plasma, 40 days at −80 °C, 50 ng/mL, n = 6",−4.82%
same,"Stability, RE (%)","[2]; rat plasma, 40 days at −80 °C, 160 ng/mL, n = 6",−6.91%
same,"Stability, RE (%)","[2]; rat plasma, three freeze-thaw cycle, 5 ng/mL, n = 6",8.97%
same,"Stability, RE (%)","[2]; rat plasma, three freeze-thaw cycle, 50 ng/mL, n = 6",−5.58%
same,"Stability, RE (%)","[2]; rat plasma, three freeze-thaw cycle, 160 ng/mL, n = 6",4.24%
